Where two headings read alike, the source gives them in different places.
Tested on: M. mycetomatis genome strain MM55
Assay: CLSI M38-A2 based in vitro susceptibility screening (XTT or resazurin), growth at fixed concentration
Assay type: cell-based, Madurella mycetomatis
Conditions: Madurella mycetomatis
[1] = 25 uM, mean of three replicates, read-out: Percentage survival at 25um, 25 uM mean
[2] = 25 uM, replicate A, read-out: Percentage survival at 25um, 25 um A
[3] = 25 uM, replicate B, read-out: Percentage survival at 25um, 25 uM B
[4] = 25 uM, replicate C, read-out: Percentage survival at 25um, 25 uM C
[5] = mean of three replicates, read-out: Percentage survival at 100um, 100 uM mean
[6] = replicate 1, read-out: Percentage survival at 100um, 100 uM A (first replicate column)
[7] = replicate 2, read-out: Percentage survival at 100um, 100 uM A (second replicate column)
[8] = replicate 3, read-out: Percentage survival at 100um, 100 uM A (third replicate column)
[9] = mean of replicates, read-out: Percentage survival at 100um, 100 uM mean
[10] = 25 uM, mean of three, M. mycetomatis MM55, read-out: Percentage survival at 25um, 25 uM mean
[11] = 25 uM, replicate A, M. mycetomatis MM55, read-out: Percentage survival at 25um, 25 um A
[12] = 25 uM, replicate B, M. mycetomatis MM55, read-out: Percentage survival at 25um, 25 uM B
[13] = 25 uM, replicate C, M. mycetomatis MM55, read-out: Percentage survival at 25um, 25 uM C
[14] = mean of three, M. mycetomatis MM55, read-out: Percentage survival at 100um, 100 uM mean
[15] = replicate 1, M. mycetomatis MM55, read-out: Percentage survival at 100um, 100 uM A (first replicate column)
[16] = replicate 2, M. mycetomatis MM55, read-out: Percentage survival at 100um, 100 uM A (second replicate column)
[17] = replicate 3, M. mycetomatis MM55, read-out: Percentage survival at 100um, 100 uM A (third replicate column)
[18] = first replicate column, read-out: Percentage survival at 100um, 100 uM A
[19] = second replicate column, read-out: Percentage survival at 100um, 100 uM A
[20] = third replicate column, read-out: Percentage survival at 100um, 100 uM A

| Compound | activity at 25 µM [1] [%] | activity at 25 µM [2] [%] | activity at 25 µM [3] [%] | activity at 25 µM [4] [%] | activity at 100 µM [5] [%] | activity at 100 µM [6] [%] | activity at 100 µM [8] [%] | other results |
| --- | --- | --- | --- | --- | --- | --- | --- | --- |
| O=C1CCC(N2C(=O)c3ccccc3C2=O)C(=O)N1 (stereo not shown) [MMV002612] | 90.8 | 89.5 | 90.5 | 92.5 | 85.3 | 88.1 | 82.9 | Percent fungal survival at 100 µM [7]: 84.8% |
| NCc1ccc(S(N)(=O)=O)cc1 [MMV002665] | 85.4 | 82.7 | 87.5 | 86.1 | 90.8 | 98.4 | 95.8 | Percent fungal survival at 100 µM [7]: 78.3% |
| C[N+]1(C)CCCC(OC(=O)C(O)(c2ccccc2)c2ccccc2)C1 (stereo not shown) [MMV002676] | – | 73.4 | 85.9 | 78.5 | – | – | – | activity at 25 µM (25 uM, mean of replicates, read-out: Percentage survival at 25um, 25 uM mean): 79.3%; activity at 100 µM [9]: 79.9%; activity at 100 µM (replicate 1, read-out: Percentage survival at 100um, 100 uM A): 85.5%; activity at 100 µM (replicate 2, read-out: Percentage survival at 100um, 100 uM A): 72.6%; activity at 100 µM (replicate 3, read-out: Percentage survival at 100um, 100 uM A): 81.5% |
| Cc1cc(C2CCCCC2)n(O)c(=O)c1 [MMV002731] | – | -3.44 | 96.3 | 3.22 | – | – | – | activity at 25 µM (25 uM, mean, read-out: Percentage survival at 25um, 25 uM mean): 32%; activity at 100 µM (mean, read-out: Percentage survival at 100um, 100 uM mean): 5.09%; activity at 100 µM (replicate (first column), read-out: Percentage survival at 100um, 100 uM A): -2.39%; activity at 100 µM (replicate (second column), read-out: Percentage survival at 100um, 100 uM A): 6.16%; activity at 100 µM (replicate (third column), read-out: Percentage survival at 100um, 100 uM A): 11.5% |
| Cc1onc(-c2ccccc2Cl)c1C(=O)N[C@@H]1C(=O)N2[C@@H]1SC(C)(C)[C@@H]2C(=O)O [MMV002740] | – | – | – | – | – | – | – | activity at 25 µM [10]: 65.2%; activity at 25 µM [11]: 60.8%; activity at 25 µM [12]: 53.9%; activity at 25 µM [13]: 80.9%; activity at 100 µM [14]: 92.7%; activity at 100 µM [15]: 88.1%; Percent fungal survival at 100 µM [16]: 77.7%; activity at 100 µM [17]: 112% |
| COc1ccc2c(c1OC)C(=O)OC2C1c2c(cc3c(c2OC)OCO3)CCN1C (stereo not shown) [MMV002780] | 82 | 86.6 | 81.3 | 78.1 | 72.6 | – | – | activity at 100 µM [18]: 72.9%; activity at 100 µM [19]: 68.2%; activity at 100 µM [20]: 76.7% |
| C[C@H]1CC[C@]2(NC1)O[C@H]1C[C@H]3[C@@H]4CC[C@H]5C[C@@H](O)CC[C@]5(C)[C@H]4CC[C@]3(C)[C@H]1[C@@H]2C [MMV003069] | – | 98.3 | – | – | – | 80.2 | 84.2 | activity at 100 µM [9]: 85.8%; activity at 100 µM [7]: 92.8%; activity at 25 µM (read-out: Percentage survival at 25um, 25 uM B): 98.8%; activity at 25 µM (read-out: Percentage survival at 25um, 25 uM C): 91.1%; activity at 25 µM (read-out: Percentage survival at 25um, 25 uM mean): 96.1% |
| CC[C@H]1OC(=O)[C@H](C)[C@@H](O[C@H]2C[C@@](C)(OC)[C@@H](O)[C@H](C)O2)[C@H](C)[C@@H](O[C@@H]2O[C@H](C)C[C@H](N(C)C)[C@H]2O)[C@](C)(O)C[C@@H](C)C(=O)[C@H](C)[C@@H](O)[C@]1(C)O [MMV003137] | – | – | – | – | – | – | – | activity at 25 µM [10]: 82.5%; activity at 25 µM [11]: 94.8%; activity at 25 µM [12]: 79.1%; activity at 25 µM [13]: 73.6%; activity at 100 µM [14]: 79.9%; activity at 100 µM [15]: 78.2%; Percent fungal survival at 100 µM [16]: 73.7%; activity at 100 µM [17]: 87.7% |
| NC(=O)c1cnccn1 [MMV003249] | 83.1 | 89.2 | 75.7 | 84.4 | 60 | 53.7 | 56.3 | Percent fungal survival at 100 µM [7]: 70% |
| Cc1oncc1C(=O)Nc1ccc(C(F)(F)F)cc1 [MMV003291] | 85.3 | 82.1 | 92.4 | 81.5 | 62.5 | – | – | activity at 100 µM [18]: 55.9%; activity at 100 µM [19]: 52.4%; activity at 100 µM [20]: 79% |
| CC#C[C@]1(O)CC[C@H]2[C@@H]3CCC4=CC(=O)CCC4=C3[C@@H](c3ccc(N(C)C)cc3)C[C@@]21C [MMV003297] | 87.2 | 90.2 | 94.9 | 76.5 | 80.3 | – | – | activity at 100 µM [18]: 84.5%; activity at 100 µM [19]: 82.6%; activity at 100 µM [20]: 73.8% |

— PMC8815882, “Screening the pandemic response box identified benzimidazole carbamates, Olorofim and ravuconazole as promising drug candidates for the treatment of eumycetoma” (PLoS Neglected Tropical Diseases, 2022)
